Starred links: 1 amine or outer side, 2 acyl side, 3 side chain; linkers in the order of their positions; H or OH if unused. Positions of bridges follow the written chain, without caps; N, C: chain ends. Non-standard residues stand in square brackets, D forms with d. Residues, ends and D or L forms follow the SMILES beside them. X1 = O=C(CC1(S[*:2])CCCCC1)[*:1]; Nva = CCC[C@H](N)C(=O)O; Abu = CC[C@H](N)C(=O)O
Test system: antidiuretic response to arginine vasopressin (ADH)
Test: Anti-antidiuretic: antagonism of the antidiuretic response to subsequent injections of vasopressin
Format: in vivo, rats
Method: Activity as antidiuretic agonists was determined by intravenous injection of the compounds being evaluated in ethanol-anesthesized water-loaded rats in accordance with Sawyer, Endocrinology, vol. 63 (1958) at 694. Antagonism of the response to subsequent injections of vasopressin was tested as described by Sawyer et al., Science, vol. 212 (1981) at 49.
Antagonistic potencies were determined and expressed as "effective doses" and pA2 values. The "effective dose" is defined as the dose (in nanomoles per kilogram) that reduces the response seen from 2x units of agonist injected 20 min after the dose of antagonist to the response with 1x units of agonist. Estimated in vivo "pA2 " values represent the negative logarithms of the effective doses, divided by the estimated volume of distribution (67 ml/kg).

[1] = Table 2, estimated in vivo pA2, volume of distribution 67 ml/kg

SMILES	Anti-Antidiuretic pA2 [1]	also measured
CC[C@@H](C)[C@H]1NC(=O)CC2(CCCCC2)SSC[C@@H](C(=O)N2CCC[C@H]2C(=O)N[C@@H](CCCNC(=N)N)C(=O)NCC(N)=O)NC(=O)[C@H](CC(N)=O)NC(=O)[C@H](C)NC(=O)[C@H](Cc2ccccc2)NC1=O [d(CH2)5 D-Ile^2 Ala^4 AVP, [1-(β-mercapto-β,β-cyclopentamethylenepropionic acid), 2-D-isoleucine, 4-alanine]-arginine vasopressin] ([dI]FANCPRG-NH2; linker N-5 via X1)	7.76	
CC[C@H](C)[C@@H]1NC(=O)[C@H](Cc2ccccc2)NC(=O)[C@@H](Cc2ccccc2)NC(=O)CC2(CCCCC2)SSC[C@@H](C(=O)N2CCC[C@H]2C(=O)N[C@@H](CCCNC(=N)N)C(=O)NCC(N)=O)NC(=O)[C@H](CC(N)=O)NC1=O [d(CH2)5 D-Phe^2 Ile^4 AVP, [1-(β-mercapto-β,β-cyclopentamethylenepropionic acid), 2-D-phenylalanine, 4-isoleucine]-arginine vasopressin] ([dF]FINCPRG-NH2; linker N-5 via X1)	8.24	
CC[C@@H](C)[C@H]1NC(=O)CC2(CCCCC2)SSC[C@@H](C(=O)N2CCC[C@H]2C(=O)N[C@@H](CCCNC(=N)N)C(=O)NCC(N)=O)NC(=O)[C@H](CC(N)=O)NC(=O)[C@H](CC(C)C)NC(=O)[C@H](Cc2ccccc2)NC1=O [d(CH2)5 D-Ile^2 Leu^4 AVP, [1-(β-mercapto-β,β-cyclopentamethylenepropionic acid), 2-D-isoleucine, 4-leucine]-arginine vasopressin] ([dI]FLNCPRG-NH2; linker N-5 via X1)	6.80	
C[C@@H]1NC(=O)[C@H](Cc2ccccc2)NC(=O)[C@@H](Cc2ccccc2)NC(=O)CC2(CCCCC2)SSC[C@@H](C(=O)N2CCC[C@H]2C(=O)N[C@@H](CCCNC(=N)N)C(=O)NCC(N)=O)NC(=O)[C@H](CC(N)=O)NC1=O [d(CH2)5 D-Phe^2 Ala^4 AVP, [1-(β-mercapto-β,β-cyclopentamethylenepropionic acid), 2-D-phenylalanine, 4-alanine]-arginine vasopressin] ([dF]FANCPRG-NH2; linker N-5 via X1)	7.52	
CC[C@@H](C)[C@H]1NC(=O)CC2(CCCCC2)SSC[C@@H](C(=O)N2CCC[C@H]2C(=O)N[C@@H](CCCNC(=N)N)C(=O)NCC(N)=O)NC(=O)[C@H](CC(N)=O)NC(=O)[C@H](CCC(N)=O)NC(=O)[C@H](Cc2ccccc2)NC1=O [d(CH2)5 D-Ile^2 AVP, [1-(β-mercapto-β,β-cyclopentamethylenepropionic acid), 2-D-isoleucine]-arginine vasopressin] ([dI]FQNCPRG-NH2; linker N-5 via X1)	6.96	
N=C(N)NCCC[C@H](NC(=O)[C@@H]1CCCN1C(=O)[C@@H]1CSSC2(CCCCC2)CC(=O)N[C@H](Cc2ccccc2)C(=O)N[C@@H](Cc2ccccc2)C(=O)N[C@@H](CCC(N)=O)C(=O)N[C@@H](CC(N)=O)C(=O)N1)C(=O)NCC(N)=O [d(CH2)5 D-Phe^2 AVP, [1-(β-mercapto-β,β-cyclopentamethylenepropionic acid), 2-D-phenylalanine]-arginine vasopressin] ([dF]FQNCPRG-NH2; linker N-5 via X1)	7.21	
N=C(N)NCCC[C@H](NC(=O)[C@@H]1CCCN1C(=O)[C@@H]1CSSC2(CCCCC2)CC(=O)N[C@H](Cc2ccccc2)C(=O)N[C@@H](Cc2ccccc2)C(=O)N[C@@H](Cc2ccc(O)cc2)C(=O)N[C@@H](CC(N)=O)C(=O)N1)C(=O)NCC(N)=O [d(CH2)5 D-Phe^2 Tyr^4 AVP, [1-(β-mercapto-β,β-cyclopentamethylenepropionic acid), 2-D-phenylalanine, 4-tyrosine]-arginine vasopressin] ([dF]FYNCPRG-NH2; linker N-5 via X1)	~ 5.57	
N=C(N)NCCC[C@H](NC(=O)[C@@H]1CCCN1C(=O)[C@@H]1CSSC2(CCCCC2)CC(=O)N[C@H](Cc2ccccc2)C(=O)N[C@@H](Cc2ccccc2)C(=O)N[C@@H](CCCCN)C(=O)N[C@@H](CC(N)=O)C(=O)N1)C(=O)NCC(N)=O [d(CH2)5 D-Phe^2 Lys^4 AVP, [1-(β-mercapto-β,β-cyclopentamethylenepropionic acid), 2-D-phenylalanine, 4-lysine]-arginine vasopressin] ([dF]FKNCPRG-NH2; linker N-5 via X1)	7.22	
N=C(N)NCCC[C@H](NC(=O)[C@@H]1CCCN1C(=O)[C@@H]1CSSC2(CCCCC2)CC(=O)N[C@H](Cc2ccccc2)C(=O)N[C@@H](Cc2ccccc2)C(=O)NCC(=O)N[C@@H](CC(N)=O)C(=O)N1)C(=O)NCC(N)=O [d(CH2)5 D-Phe^2 Gly^4 AVP, [1-(β-mercapto-β,β-cyclopentamethylenepropionic acid), 2-D-phenylalanine, 4-glycine]-arginine vasopressin] ([dF]FGNCPRG-NH2; linker N-5 via X1)	5.85	
CC(C)[C@@H]1NC(=O)[C@H](Cc2ccccc2)NC(=O)[C@@H](Cc2ccc(O)cc2)NC(=O)CC2(CCCCC2)SSC[C@@H](C(=O)N2CCC[C@H]2C(=O)N[C@@H](CCCNC(=N)N)C(=O)NCC(N)=O)NC(=O)[C@H](CC(N)=O)NC1=O [d(CH2)5 --D-TyrVAVP, [1-(β-mercapto-β,β-cyclopentamethylenepropionic acid), 2-D-tyrosine, 4-valine]-arginine vasopressin] ([dY]FVNCPRG-NH2; linker N-5 via X1)		Anti-Antidiuretic pA2 (Table 1, estimated in vivo pA2, volume of distribution 67 ml/kg): 7.51 ± 0.08
CC[C@@H](C)[C@H]1NC(=O)CC2(CCCCC2)SSC[C@@H](C(=O)N2CCC[C@H]2C(=O)N[C@@H](CCCNC(=N)N)C(=O)NCC(N)=O)NC(=O)[C@H](CC(N)=O)NC(=O)[C@H](C(C)C)NC(=O)[C@H](Cc2ccccc2)NC1=O [d(CH2)5 D-Ile^2 VAVP, [1-(β-mercapto-β,β-cyclopentamethylenepropionic acid), 2-D-isoleucine, 4-valine]-arginine vasopressin] ([dI]FVNCPRG-NH2; linker N-5 via X1)	7.98	
CCOc1ccc(C[C@H]2NC(=O)CC3(CCCCC3)SSC[C@@H](C(=O)N3CCC[C@H]3C(=O)N[C@@H](CCCCN)C(=O)NCC(N)=O)NC(=O)[C@H](CC(N)=O)NC(=O)[C@H](C(C)C)NC(=O)[C@H](Cc3ccccc3)NC2=O)cc1 [d(CH2)5 D-Tyr(Et)^2 Val^4 Lys^8 VP] ([dY](Et)FVNCPKG-NH2; linker N-5 via X1)		Anti-Antidiuretic pA2 (rat, in vivo): 7.72
CC(C)C[C@@H]1NC(=O)[C@H](Cc2ccccc2)NC(=O)[C@@H](Cc2ccccc2)NC(=O)CC2(CCCCC2)SSC[C@@H](C(=O)N2CCC[C@H]2C(=O)N[C@@H](CCCNC(=N)N)C(=O)NCC(N)=O)NC(=O)[C@H](CC(N)=O)NC1=O [d(CH2)5 D-Phe^2 Leu^4 AVP, [1-(β-mercapto-β,β-cyclopentamethylenepropionic acid), 2-D-phenylalanine, 4-leucine]-arginine vasopressin] ([dF]FLNCPRG-NH2; linker N-5 via X1)	6.07	
CCOc1ccc(C[C@@H]2NC(=O)CC3(CCCCC3)SSC[C@@H](C(=O)N3CCC[C@H]3C(=O)N[C@@H](CCCCN)C(=O)NCC(N)=O)NC(=O)[C@H](CC(N)=O)NC(=O)[C@H](C(C)C)NC(=O)[C@H](Cc3ccccc3)NC2=O)cc1 [d(CH2)5 Tyr(Et)^2 Val^4 Lys^8 VP] (Y(Et)FVNCPKG-NH2; linker N-5 via X1)		Anti-Antidiuretic pA2 (rat, in vivo): 7.29
CCC[C@@H]1NC(=O)[C@H](Cc2ccccc2)NC(=O)[C@@H](Cc2ccccc2)NC(=O)CC2(CCCCC2)SSC[C@@H](C(=O)N2CCC[C@H]2C(=O)N[C@@H](CCCNC(=N)N)C(=O)NCC(N)=O)NC(=O)[C@H](CC(N)=O)NC1=O [d(CH2)5 D-Phe^2 Nva^4 AVP, [1-(β-mercapto-β,β-cyclopentamethylenepropionic acid), 2-D-phenylalanine, 4-norvaline]-arginine vasopressin] ([dF]F[Nva]NCPRG-NH2; linker N-5 via X1)	6.99	
CC[C@@H]1NC(=O)[C@H](Cc2ccccc2)NC(=O)[C@@H]([C@H](C)CC)NC(=O)CC2(CCCCC2)SSC[C@@H](C(=O)N2CCC[C@H]2C(=O)N[C@@H](CCCNC(=N)N)C(=O)NCC(N)=O)NC(=O)[C@H](CC(N)=O)NC1=O [d(CH2)5 D-Ile^2 Abu^4 AVP, [1-(β-mercapto-β,β-cyclopentamethylenepropionic acid), 2-D-isoleucine, 4-α-aminobutyric acid]-arginine vasopressin] ([dI]F[Abu]NCPRG-NH2; linker N-5 via X1)	8.22	
CC[C@@H](C)[C@H]1NC(=O)CC2(CCCCC2)SSC[C@@H](C(=O)N2CCC[C@H]2C(=O)N[C@@H](CCCNC(=N)N)C(=O)NCC(N)=O)NC(=O)[C@H](CC(N)=O)NC(=O)[C@H]([C@@H](C)CC)NC(=O)[C@H](Cc2ccccc2)NC1=O [d(CH2)5 D-Ile^2 Ile^4 AVP, [1-(β-mercapto-β,β-cyclopentamethylenepropionic acid), 2-D-isoleucine, 4-isoleucine]-arginine vasopressin] ([dI]FINCPRG-NH2; linker N-5 via X1)	8.04	
CC[C@@H](C)[C@H]1NC(=O)CC2(CCCCC2)SSC[C@@H](C(=O)N2CCC[C@H]2C(=O)N[C@@H](CCCNC(=N)N)C(=O)NCC(N)=O)NC(=O)[C@H](CC(N)=O)NC(=O)[C@H]([C@@H](C)O)NC(=O)[C@H](Cc2ccccc2)NC1=O [d(CH2)5 D-Ile^2 Thr^4 AVP, [1-(β-mercapto-β,β-cyclopentamethylenepropionic acid), 2-D-isoleucine, 4-threonine]-arginine vasopressin] ([dI]FTNCPRG-NH2; linker N-5 via X1)	7.91	

— patent publication US4551445A, “Derivatives of arginine vasopressin antagonists” (The Medical College of Ohio, priority 1983, dated 1985)
